Experiment [1] relates to human β-cells. Briefly: Human islet single cell RNA sequencing (scRNA-seq), gene set enrichment in β-cells. It is filed as cell-based. Conditions: human islets, 10 μM harmine, 10 nM exendin-4, 6 h.
Protocol: After treatment, human islets were washed twice with PBS and centrifuged at 300 rpm for three min. After removing the PBS, 200 μl pre-warmed Accutase was added and the islets were incubated at 37° C. for 10 minutes. Then, complete RPMI medium was added, the sample centrifuged at 1000 rpm for three min, and the pellet was washed with PBS. Cells were then resuspended in binding buffer (Miltenyi Biotec) and dead cell removal beads, the tube was incubated for 15 minutes at room temperature and the cell suspension applied onto the dead cell removal column (Miltenyi Biotec), which was attached to the MACS separator. […]
Cell samples were prepared according to the user guide of 10× Genomics Single Cell 3′ V3.1 Reagent Kit, processed with 10× Genomic Chromium Controller for partitioning and barcoding, followed by the cDNA library generation. The total cell concentration analyzed by the Countess 3 was then sequenced by the NovaSeq 6000 System (Illumina). […] After the 10×, h5 format file was generated, the data were analyzed on the R language platform with Seurat package V.4.0. […]
After assessment of the data quality control parameters as above, integrated scRNA-data were created with Seurat's SCTransform function without allocating method parameters. […] After enrichment scores were calculated for each single cell, they were added to the Meta data for analysis and visualization by dotplot.
The test system of experiment [2] is human β-cells. Briefly: Analysis of human β-cell death in vitro (TUNEL/insulin staining). It is filed as cell-based. Conditions: 10 μM harmine, 10 nM exendin-4, 24 hours, TUNEL. Here is the method:
Briefly, after washing the human islets with PBS twice, 200 μl pre-warmed Accutase (Corning) was added, and the tube was incubated at 37° C. for 10 minutes. Then, complete RPMI medium (RPMI with 5 mM D-glucose, 10% FBS, 100 units/ml penicillin, and 100 μg/ml streptomycin) was added, the sample was centrifuged at 1000 rpm for three min, the pellet was washed with PBS and centrifuged again at 1000 rpm for three min. The pellet was resuspended in complete RPMI medium and 50,000 cells/well were plated on 12-mm glass coverslips, placed in 24-well plates, and incubated at 37° C. and 5% CO2 for 24 hours. […] Cells were incubated at 37° C. and 5% CO2 for 24 hours. Then, cells were fixed in 4% paraformaldehyde and TUNEL (cell death marker) and insulin staining were performed using the DeadEnd Fluorometric TUNEL System (Promega), anti-proinsulin/C-peptide antibody (DSHB), and DAPI for nuclei detection. A minimum of 1,500 β-cells were examined per coverslip.

Experiment [3] relates to patients with new-onset type 1 diabetes. The settings on record: for up to seven years following initial diagnosis; cited from earlier work.

Consider `COc1ccc2c(c1)[nH]c1c(C)nccc12` [harmine], for which the “inhibitory HLA-E expression in β-cells treated with cytokines” value in experiment [1] is on record as “increased”. In addition, in experiment [1] (GSEA), the “expression of pro-inflammatory, intrinsic and extrinsic apoptosis, HLA class I, chemokines CXCL9-11 and interferon regulatory factor 1-9 signaling pathways in β-cells treated with cytokines” value is recorded as “not with the drugs alone”. Further, in experiment [2] (500 nM thapsigargin), the “human β-cell death induced by thapsigargin” value is “non-significant, partial protection”. The “human β-cell death induced by cytokines” value in experiment [2] (cytokines IL-1β, TNF-α, IFN-γ) is reported as “non-significant, partial protection”.

On to “teplizumab: humanized, non-mitogenic aglycosylated anti-CD3 monoclonal antibody”, for which, in experiment [3], the “loss of β-cell function” value is reported as “reduces the loss of β-cell function”.

(Values after patent US20250186556A1, “COMBINATION THERAPY WITH IMMUNOMODULATORS, DYRK1A INHIBITORS, AND GLP1R AGONISTS FOR TYPE 1 DIABETES TREATMENT” (ICAHN SCHOOL OF MEDICINE AT MOUNT SINAI, priority 2022, published 2025).)
